Measurements: US20210045385A1, “PYRIDAZINONE-SUBSTITUTED KETOXIMES AS HERBICIDES” (FMC Corporation, priority 2018, published 2021)

Experiments:
Type in all cases: in vivo
[1] = test system: barnyardgrass (Echinochloa crus-galli); test: Test A preemergence, visual plant response rating; details: approx. 10 days
Outline: (§1)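 Ratings use a 0–100 visual scale (100 = complete control) against untreated controls, scored about 10 days after greenhouse treatment. Test chemicals were formulated in surfactant-containing non-phytotoxic solvent and applied either as soil spray after planting (preemergence) or onto one- to two-leaf, 2–10 cm plants (postemergence).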

[2] = test system: foxtail, green (green foxtail, Setaria viridis); test: Test A preemergence, visual plant response rating; details: approx. 10 days
Outline: as §1

[3] = test system: ragweed (common ragweed, Ambrosia elatior); test: Test A preemergence, visual plant response rating; details: approx. 10 days
Outline: as §1

[4] = test system: pigweed (Amaranthus retroflexus); test: Test A preemergence, visual plant response rating; details: approx. 10 days
Outline: as §1

kochia (Kochia scoparia) [5] = test: Test A preemergence, visual plant response rating; details: approx. 10 days
Outline: as §1

[6] = test system: Italian ryegrass (Lolium multiflorum); test: Test A preemergence, visual plant response rating; details: approx. 10 days
Outline: as §1

[7] = test system: wheat (Triticum aestivum); test: Test A postemergence, visual plant response rating; details: for Wheat plant response rating (0 to 100 scale): 500 g ai/ha, postemergence, 0 is no effect, 100 is complete control; for Wheat plant response rating: Postemergence, 125 g ai/ha, 0 to 100 scale (0 no effect, 100 complete control)
Outline: as §1

[8] = test system: barnyardgrass (Echinochloa crus-galli); test: Test A postemergence, visual plant response rating; details: for Barnyardgrass plant response rating (0 to 100 scale): 500 g ai/ha, postemergence, 0 is no effect, 100 is complete control; for Barnyardgrass plant response rating: Postemergence, 125 g ai/ha, 0 to 100 scale (0 no effect, 100 complete control)
Outline: as §1

[9] = test system: foxtail, green (green foxtail, Setaria viridis); test: Test A postemergence, visual plant response rating; details: for Foxtail, Green plant response rating (0 to 100 scale): 500 g ai/ha, postemergence, 0 is no effect, 100 is complete control; for Foxtail, Green plant response rating: Postemergence, 125 g ai/ha, 0 to 100 scale (0 no effect, 100 complete control)
Outline: as §1

[10] = test system: ragweed (common ragweed, Ambrosia elatior); test: Test A postemergence, visual plant response rating; details: for Ragweed plant response rating (0 to 100 scale): 500 g ai/ha, postemergence, 0 is no effect, 100 is complete control; for Ragweed plant response rating: Postemergence, 125 g ai/ha, 0 to 100 scale (0 no effect, 100 complete control)
Outline: as §1

[11] = test system: pigweed (Amaranthus retroflexus); test: Test A postemergence, visual plant response rating; details: for Pigweed plant response rating (0 to 100 scale): 500 g ai/ha, postemergence, 0 is no effect, 100 is complete control; for Pigweed plant response rating: Postemergence, 125 g ai/ha, 0 to 100 scale (0 no effect, 100 complete control)
Outline: as §1

corn (Zea mays) = test: Test A postemergence, visual plant response rating; details: for Corn plant response rating (0 to 100 scale): 500 g ai/ha, postemergence, 0 is no effect, 100 is complete control; for Corn plant response rating: Postemergence, 125 g ai/ha, 0 to 100 scale (0 no effect, 100 complete control)
Outline: as §1

[12] = test system: galium (catchweed bedstraw, Galium aparine); test: Test A postemergence, visual plant response rating; details: for Galium plant response rating (0 to 100 scale): 500 g ai/ha, postemergence, 0 is no effect, 100 is complete control; for Galium plant response rating: Postemergence, 125 g ai/ha, 0 to 100 scale (0 no effect, 100 complete control)
Outline: as §1

kochia (Kochia scoparia) [13] = test: Test A postemergence, visual plant response rating; details: for Kochia plant response rating (0 to 100 scale): 500 g ai/ha, postemergence, 0 is no effect, 100 is complete control; for Kochia plant response rating: Postemergence, 125 g ai/ha, 0 to 100 scale (0 no effect, 100 complete control)
Outline: as §1

[14] = test system: blackgrass (Alopecurus myosuroides); test: Test A postemergence, visual plant response rating; details: for Blackgrass plant response rating (0 to 100 scale): 500 g ai/ha, postemergence, 0 is no effect, 100 is complete control; for Blackgrass plant response rating: Postemergence, 125 g ai/ha, 0 to 100 scale (0 no effect, 100 complete control)
Outline: as §1

[15] = test system: Italian ryegrass (Lolium multiflorum); test: Test A postemergence, visual plant response rating; details: for Ryegrass, Italian plant response rating (0 to 100 scale): 500 g ai/ha, postemergence, 0 is no effect, 100 is complete control; for Ryegrass, Italian plant response rating: Postemergence, 125 g ai/ha, 0 to 100 scale (0 no effect, 100 complete control)
Outline: as §1

[16] = test system: barnyardgrass (Echinochloa crus-galli); test: Test B flooded paddy test, visual plant response rating; details: 250 g ai/ha, Flood, applied to paddy water, 2-leaf stage, evaluated after 13 to 15 days
Outline: (§2)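 Greenhouse paddy conditions applied: two-leaf plants, a 3 cm flood above the soil surface maintained throughout, and compound added to the water rather than the foliage. Plants were judged visually against controls at 13 to 15 days.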

[17] = test system: ducksalad (Heteranhera limosa); test: as above; details: 250 g ai/ha, Flood, applied to paddy water, 2-leaf stage, evaluated after 13 to 15 days
Outline: as §2

[18] = test system: sedge, umbrella (small-flower umbrella sedge, Cyperus difformis); test: as above; details: 250 g ai/ha, Flood, applied to paddy water, 2-leaf stage, evaluated after 13 to 15 days
Outline: as §2

rice (Oryza sativa) = test: as above; details: 250 g ai/ha, Flood, applied to paddy water, 2-leaf stage, evaluated after 13 to 15 days
Outline: as §2

SMILES	Barnyardgrass plant response rating (0 to 100 scale) ([1]; 125 g ai/ha Preemergence)	Barnyardgrass plant response rating (0 to 100 scale) ([1]; 500 g ai/ha Preemergence)	Foxtail, Green plant response rating (0 to 100 scale) ([2]; 125 g ai/ha Preemergence)	Foxtail, Green plant response rating (0 to 100 scale) ([2]; 500 g ai/ha Preemergence)	Ragweed plant response rating (0 to 100 scale) ([3]; 125 g ai/ha Preemergence)	Ragweed plant response rating (0 to 100 scale) ([3]; 500 g ai/ha Preemergence)	Pigweed plant response rating (0 to 100 scale) ([4]; 125 g ai/ha Preemergence)	Pigweed plant response rating (0 to 100 scale) ([4]; 500 g ai/ha Preemergence)	Kochia plant response rating (0 to 100 scale) (kochia (Kochia scoparia) [5]; 125 g ai/ha Preemergence)	Kochia plant response rating (0 to 100 scale) (kochia (Kochia scoparia) [5]; 500 g ai/ha Preemergence)	Ryegrass, Italian plant response rating (0 to 100 scale) ([6]; 125 g ai/ha Preemergence)	Ryegrass, Italian plant response rating (0 to 100 scale) ([6]; 500 g ai/ha Preemergence)	Wheat plant response rating (0 to 100 scale) [7]	Wheat plant response rating [7]	Barnyardgrass plant response rating (0 to 100 scale) [8]	Barnyardgrass plant response rating [8]	Foxtail, Green plant response rating (0 to 100 scale) [9]	Foxtail, Green plant response rating [9]	Ragweed plant response rating (0 to 100 scale) [10]	Ragweed plant response rating [10]	other results
CCO/N=C(/c1ccccc1C)c1c(O)c(C)nn(C)c1=O [Compound 15]	30	80	0	60	30	90	60	70	0	10	70	80	0	0	30	10	30	10	80	60	Pigweed plant response rating (0 to 100 scale) [11]: 30; Pigweed plant response rating [11]: 20; Corn plant response rating (0 to 100 scale) (corn (Zea mays)): 10; Corn plant response rating (corn (Zea mays)): 0; Galium plant response rating (0 to 100 scale) [12]: 90; Galium plant response rating [12]: 80; Kochia plant response rating (0 to 100 scale) (kochia (Kochia scoparia) [13]): 20; Kochia plant response rating (kochia (Kochia scoparia) [13]): 0; Blackgrass plant response rating (0 to 100 scale) [14]: 60; Blackgrass plant response rating [14]: 30; Ryegrass, Italian plant response rating (0 to 100 scale) [15]: 80; Ryegrass, Italian plant response rating [15]: 60; Plant response rating, Barnyardgrass (0 to 100 scale, 0 is no effect, 100 is complete control) [16]: 0; Plant response rating, Ducksalad (0 to 100 scale, 0 is no effect, 100 is complete control) [17]: 0; Plant response rating, Sedge, Umbrella (0 to 100 scale, 0 is no effect, 100 is complete control) [18]: 0; Plant response rating, Rice (0 to 100 scale, 0 is no effect, 100 is complete control) (rice (Oryza sativa)): 0
CCO/N=C(/c1ccc(C)cc1)c1c(O)c(C)nn(C)c1=O [Compound 16]	0	0	0	0	0	20	0	0	0	0	0	50	0	0	10	0	10	0	30	0	Pigweed plant response rating (0 to 100 scale) [11]: 0; Pigweed plant response rating [11]: 0; Corn plant response rating (0 to 100 scale) (corn (Zea mays)): 0; Corn plant response rating (corn (Zea mays)): 0; Galium plant response rating (0 to 100 scale) [12]: 0; Galium plant response rating [12]: 0; Kochia plant response rating (0 to 100 scale) (kochia (Kochia scoparia) [13]): 10; Kochia plant response rating (kochia (Kochia scoparia) [13]): 0; Blackgrass plant response rating (0 to 100 scale) [14]: 0; Blackgrass plant response rating [14]: 0; Ryegrass, Italian plant response rating (0 to 100 scale) [15]: 0; Ryegrass, Italian plant response rating [15]: 0; Plant response rating, Barnyardgrass (0 to 100 scale, 0 is no effect, 100 is complete control) [16]: 0; Plant response rating, Ducksalad (0 to 100 scale, 0 is no effect, 100 is complete control) [17]: 0; Plant response rating, Sedge, Umbrella (0 to 100 scale, 0 is no effect, 100 is complete control) [18]: 0; Plant response rating, Rice (0 to 100 scale, 0 is no effect, 100 is complete control) (rice (Oryza sativa)): 0
Cc1ccccc1/C(=N/OC(C)C)c1c(O)c(C)nn(C)c1=O [Compound 19]	50	60	0	40	50	80	0	80	0	0	0	50	0	0	60	20	50	10	80	70	Pigweed plant response rating (0 to 100 scale) [11]: 80; Pigweed plant response rating [11]: 70; Corn plant response rating (0 to 100 scale) (corn (Zea mays)): 0; Corn plant response rating (corn (Zea mays)): 0; Galium plant response rating (0 to 100 scale) [12]: 90; Galium plant response rating [12]: 80; Kochia plant response rating (0 to 100 scale) (kochia (Kochia scoparia) [13]): 30; Kochia plant response rating (kochia (Kochia scoparia) [13]): 10; Blackgrass plant response rating (0 to 100 scale) [14]: 50; Blackgrass plant response rating [14]: 10; Ryegrass, Italian plant response rating (0 to 100 scale) [15]: 30; Ryegrass, Italian plant response rating [15]: 20; Plant response rating, Barnyardgrass (0 to 100 scale, 0 is no effect, 100 is complete control) [16]: 0; Plant response rating, Ducksalad (0 to 100 scale, 0 is no effect, 100 is complete control) [17]: 0; Plant response rating, Sedge, Umbrella (0 to 100 scale, 0 is no effect, 100 is complete control) [18]: 0; Plant response rating, Rice (0 to 100 scale, 0 is no effect, 100 is complete control) (rice (Oryza sativa)): 0
Cc1ccccc1/C(=N\OC(C)C)c1c(O)c(C)nn(C)c1=O [Compound 20]	20	70	0	60	30	90	80	100	0	0	30	70	0	0	50	30	60	30	80	60	Pigweed plant response rating (0 to 100 scale) [11]: 70; Pigweed plant response rating [11]: 60; Corn plant response rating (0 to 100 scale) (corn (Zea mays)): 0; Corn plant response rating (corn (Zea mays)): 0; Galium plant response rating (0 to 100 scale) [12]: 90; Galium plant response rating [12]: 80; Kochia plant response rating (0 to 100 scale) (kochia (Kochia scoparia) [13]): 50; Kochia plant response rating (kochia (Kochia scoparia) [13]): 0; Blackgrass plant response rating (0 to 100 scale) [14]: 60; Blackgrass plant response rating [14]: 20; Ryegrass, Italian plant response rating (0 to 100 scale) [15]: 50; Ryegrass, Italian plant response rating [15]: 20; Plant response rating, Barnyardgrass (0 to 100 scale, 0 is no effect, 100 is complete control) [16]: 0; Plant response rating, Ducksalad (0 to 100 scale, 0 is no effect, 100 is complete control) [17]: 0; Plant response rating, Sedge, Umbrella (0 to 100 scale, 0 is no effect, 100 is complete control) [18]: 0; Plant response rating, Rice (0 to 100 scale, 0 is no effect, 100 is complete control) (rice (Oryza sativa)): 0
